Experimental data from US9957265B2, “N-(2-cyano heterocyclyl) pyrazolo pyridones as janus kinase inhibitors” (Merck Sharp & Dohme Corp., priority 2013, dated 2018).
Where two headings read alike, the source gives them in different places.

Legend:
JAK1 = JAK1 (Homo sapiens (Human), UniProt P23458); assay: Jak Biochemical HTRF Assay (JAK1); conditions: recombinant GST-tagged catalytic domain, [ATP] 31.8 μM, unit not given (compound concentrations tested given in nM)
From the text: Jak Biochemical HTRF Assay Protocol
Subsequent reagent additions employed an Agilent Bravo.

JAK2 = JAK2 (Homo sapiens (Human), UniProt O60674); assay: Jak Biochemical HTRF Assay (JAK2)
JAK2, sequence (O60674 849-1124): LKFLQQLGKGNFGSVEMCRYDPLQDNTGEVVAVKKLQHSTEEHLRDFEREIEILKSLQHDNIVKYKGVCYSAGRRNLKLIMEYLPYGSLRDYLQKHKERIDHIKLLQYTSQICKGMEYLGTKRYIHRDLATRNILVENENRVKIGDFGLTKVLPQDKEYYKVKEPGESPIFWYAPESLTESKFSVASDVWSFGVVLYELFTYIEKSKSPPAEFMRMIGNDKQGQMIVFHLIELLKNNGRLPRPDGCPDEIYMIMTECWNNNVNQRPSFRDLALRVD
Description: The ability of compounds to inhibit the activity of JAK1, JAK2, JAK3, and TYK2 was measured using a recombinant purified GST-tagged catalytic domain for each enzyme (Invitrogen JAK1 #M4290, JAK2 #M4290, JAK3 #M4290, TYK2 #M4290) in an HTRF format biochemical assay. […] Subsequent reagent additions employed an Agilent Bravo. […] After equilibration, 2 μL of 10×ATP in 1× assay buffer was added to initiate the kinase reaction and the plates were shaken and then incubated at room temperature for 120 minutes. […] After normalization to untreated controls, the percent inhibition of the HTRF signal at each compound concentration was calculated. The plot of percent inhibition versus the log of compound concentration was fit with a 4-parameter dose response equation to calculate IC50 values.
Final reaction conditions were:

[1] = JAK2 IC50, recombinant GST-tagged catalytic domain, [ATP] 8.5 μM, unit not given (compound concentrations tested given in nM)
[2] = read-out: JAK2 IC50, recombinant GST-tagged catalytic domain, [ATP] 8.5 μM, unit not given (compound concentrations tested given in nM)

JAK1, sequence (P23458 875-1153): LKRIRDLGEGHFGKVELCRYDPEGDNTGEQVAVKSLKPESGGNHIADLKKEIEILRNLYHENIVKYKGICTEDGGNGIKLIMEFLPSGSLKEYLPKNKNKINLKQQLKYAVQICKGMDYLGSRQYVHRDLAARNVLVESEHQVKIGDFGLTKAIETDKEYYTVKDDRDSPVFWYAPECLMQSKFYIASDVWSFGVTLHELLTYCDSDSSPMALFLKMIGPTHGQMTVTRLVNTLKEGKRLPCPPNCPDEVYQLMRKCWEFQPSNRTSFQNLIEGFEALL

SMILES	IC50 (JAK1)	IC50 (JAK2; [1])	IC50 (JAK2; [2])
CC(C)(C)NC(c1ccc(Nc2nn([C@H]3COCC[C@@H]3C#N)c3cc[nH]c(=O)c23)cc1)C(F)(F)F (single isomer, unassigned) [Example 1-51, (3R,4S)-3-[3-[3-({4-[(1S or 1R)-1-(tert-butylamino)-2,2,2-trifluoroethyl]phenyl}amino)-4-oxo-4,5-dihydro-1H-pyrazolo[4,3-c]pyridin-1-yl]tetrahydro-2H-pyran-4-carbonitrile]	0.08 nM		
Cc1nc2ccc(Nc3nn([C@@H]4COCC[C@@H]4C#N)c4cc[nH]c(=O)c34)cc2s1 [Example 2-1, (3S,4S)-3-{3-[(2-methyl-1,3-benzothiazol-6-yl)amino]-4-oxo-4,5-dihydro-1H-pyrazolo[4,3-c]pyridin-1-yl}tetrahydro-2H-pyran-4-carbonitrile]	0.03 nM		0.89 nM
CC(C)CNC(c1ccc(Nc2nn([C@H]3COCC[C@@H]3C#N)c3cc[nH]c(=O)c23)cc1)C(F)(F)F (single isomer, unassigned) [Example 1-91, (3R,4S)-3-{4-oxo-3-[(4-{(1R or 1S)-2,2,2-trifluoro-1-[(2-methylpropyl)amino]ethyl}phenyl)amino]-4,5-dihydro-1H-pyrazolo[4,3-c]pyridin-1-yl}tetrahydro-2H-pyran-4-carbonitrile]	0.17 nM	0.21 nM	
CN1CCN(C(c2ccc(Nc3nn([C@H]4COCC[C@@H]4C#N)c4cc[nH]c(=O)c34)cc2)C(F)(F)F)CC1 (single isomer, unassigned) [Example 1-37, (3R,4S)-3-[4-oxo-3-({4-[(1S or 1R)-2,2,2-trifluoro-1-(4-methylpiperazin-1-yl)ethyl]phenyl}amino)-4,5-dihydro-1H-pyrazolo[4,3-c]pyridin-1-yl]tetrahydro-2H-pyran-4-carbonitrile]	0.22 nM	0.33 nM	
CC(C)(C)NC(c1ccc(Nc2nn([C@H]3COCC[C@@H]3C#N)c3cc[nH]c(=O)c23)cc1)C(F)(F)F (single isomer, unassigned) [Example 1-50, (3R,4S)-3-[3-({4-[(1R or 1S)-1-(tert-butylamino)-2,2,2-trifluoroethyl]phenyl}amino)-4-oxo-4,5-dihydro-1H-pyrazolo[4,3-c]pyridine-1-yl]tetrahydro-2H-pyran-4-carbonitrile]	0.08 nM		
CC(C)C(C)(C)S(=O)(=O)c1ccc(Nc2nn([C@H]3COCC[C@@H]3C#N)c3cc[nH]c(=O)c23)cc1 [Example 1-66, (3R,4S)-3-[4-oxo-3-({4-[(1,1,2-trimethylpropyl)sulfonyl]phenyl}amino)-4,5-dihydro-1H-pyrazolo[4,3-c]pyridin-1-yl]tetrahydro-2H-pyran-4-carbonitrile]	0.07 nM		
CC(C)(C)S(=O)(=O)c1ccc(Nc2nn([C@@H]3CCOCC[C@H]3C#N)c3cc[nH]c(=O)c23)cc1 (single isomer, unassigned) [Example 1-27, (4R,5R or 4S,5S)-5-(3-{[4-(tert-butylsulfonyl)phenyl]amino}-4-oxo-4,5-dihydro-1H-pyrazolo[4,3-c]pyridin-1-yl)oxepane-4-carbonitrile]	22.4 nM		
CC(C)(C)S(=O)(=O)c1ccc(Nc2nn([C@@H]3CCOCC[C@@H]3C#N)c3cc[nH]c(=O)c23)cc1 (single isomer, unassigned) [Example 1-29, (4S,5R or 4R,5S)-5-(3-{[4-(tert-butylsulfonyl)phenyl]amino}-4-oxo-4,5-dihydro-1H-pyrazolo[4,3-c]pyridin-1-yl)oxepane-4-carbonitrile]	4.38 nM		
N#C[C@H]1CCOC[C@@H]1n1nc(Nc2ccc(C(N3CCC3)C(F)(F)F)cc2)c2c(=O)[nH]ccc21 (single isomer, unassigned) [Example 1-57, (3R,4S)-3-[3-({4-[(1S or 1R)-1-azetidin-1-yl-2,2,2-trifluoroethyl]phenyl}amino)-4-oxo-4,5-dihydro-1H-pyrazolo[4,3-c]pyridin-1-yl]tetrahydro-2H-pyran-4-carbonitrile]	0.09 nM		
CC(C)(C)S(=O)(=O)c1ccc(Nc2nn([C@H]3CCOCC[C@H]3C#N)c3cc[nH]c(=O)c23)cc1 (single isomer, unassigned) [Example 1-28, (4R,5S or 4S,5R)-5-(3-{[4-(tert-butylsulfonyl)phenyl]amino}-4-oxo-4,5-dihydro-1H-pyrazolo[4,3-c]pyridin-1-yl)oxepane-4-carbonitrile]	5.34 nM		
N#C[C@H]1CCOC[C@@H]1n1nc(Nc2ccc(C(N3CCC3)C(F)(F)F)cc2)c2c(=O)[nH]ccc21 (single isomer, unassigned) [Example 1-56, (3R,4S)-3-[3-({4-[(1R or 1S)-1-azetidin-1-yl-2,2,2-trifluoroethyl]phenyl}amino)-4-oxo-4,5-dihydro-1H-pyrazolo[4,3-c]pyridin-1-yl]tetrahydro-2H-pyran-4-carbonitrile]	0.06 nM		
CC(C)(C)S(=O)(=O)c1ccc(Nc2nn([C@H]3CCOCC[C@@H]3C#N)c3cc[nH]c(=O)c23)cc1 (single isomer, unassigned) [Example 1-26, (4S,5S or 4R,5R)-5-(3-{[4-(tert-butylsulfonyl)phenyl]amino}-4-oxo-4,5-dihydro-1H-pyrazolo[4,3-c]pyridin-1-yl)oxepane-4-carbonitrile]	0.71 nM		

Continued, values first:

IC50 (JAK1)	IC50 (JAK2; [1])	IC50 (JAK2; [2])	SMILES
0.14 nM	0.21 nM		CC1(C)CC1NC(c1ccc(Nc2nn([C@H]3COCC[C@@H]3C#N)c3cc[nH]c(=O)c23)cc1)C(F)(F)F (single isomer, unassigned) [Example 1-46, (3R,4S)-3-{3-[(4S or 4R-{1S or 1R-[(2,2-dimethylcyclopropyl)amino]-2,2,2-trifluoroethyl}phenyl)amino]-4-oxo-4,5-dihydro-1H-pyrazolo[4,3-c]pyridin-1-yl}tetrahydro-2H-pyran-4-carbonitrile]
0.3 nM		0.3 nM	CC(C)NC(C)(C)c1ccc(Nc2nn([C@H]3COCC[C@@H]3C#N)c3cc[nH]c(=O)c23)cc1 [Example 1-61, (3R,4S)-3-{3-[(4-{1-methyl-1-[(1-methylethyl)amino]ethyl}phenyl)amino]-4-oxo-4,5-dihydro-1H-pyrazolo[4,3-c]pyridin-1-yl}tetrahydro-2H-pyran-4-carbonitrile]
0.15 nM	0.14 nM		CC1CCCN1C(c1ccc(Nc2nn([C@H]3COCC[C@@H]3C#N)c3cc[nH]c(=O)c23)cc1)C(F)(F)F (single isomer, unassigned) [Example 1-89, (3R,4S)-3-{4-oxo-3-[(4-{(1R or 1S)-2,2,2-trifluoro-1-[(2R or 2S)-2-methylpyrrolidin-1-yl]ethyl}phenyl)amino]-4,5-dihydro-1H-pyrazolo[4,3-c]pyridin-1-yl}tetrahydro-2H-pyran-4-carbonitrile]
0.08 nM		0.15 nM	N#C[C@H]1CCOC[C@@H]1n1nc(Nc2ccc(C(NC3CC3)C(F)(F)F)cc2)c2c(=O)[nH]ccc21 (single isomer, unassigned) [Example 1-81, (3R,4S)-3-[3-({4-[(1R or 1S)-1-(cyclopropylamino)-2,2,2-trifluoroethyl]phenyl}amino)-4-oxo-4,5-dihydro-1H-pyrazolo[4,3-c]pyridin-1-yl]tetrahydro-2H-pyran-4-carbonitrile]
0.21 nM			CC(C)(N)c1ccc(Nc2nn([C@H]3COCC[C@@H]3C#N)c3cc[nH]c(=O)c23)cc1 [Example 1-60, (3R,4S)-3-(3-{[4-(1-amino-1-methylethyl)phenyl]amino}-4-oxo-4,5-dihydro-1H-pyrazolo[4,3-c]pyridin-1-yl)tetrahydro-2H-pyran-4-carbonitrile]
0.15 nM			CC1CN(S(=O)(=O)c2ccc(Nc3nn([C@H]4COCC[C@@H]4C#N)c4cc[nH]c(=O)c34)cc2)C1 [Example 1-70, (3R,4S)-3-[3-({4-[(3-methylazetidin-1-yl)sulfonyl]phenyl}amino)-4-oxo-4,5-dihydro-1H-pyrazolo[4,3-c]pyridin-1-yl]tetrahydro-2H-pyran-4-carbonitrile]
0.06 nM			N#C[C@H]1CCOCC1n1nc(Nc2ccc(C3(C(F)(F)F)CCNC3)cc2)c2c(=O)[nH]ccc21 (single isomer, unassigned) [Example 1-98, (3R,4S)-3-(4-oxo-3-((4-((S or R)-3-(trifluoromethyl)pyrrolidin-3-yl)phenyl)amino)-4,5-dihydro-1H-pyrazolo[4,3-c]pyridin-1-yl)tetrahydro-2H-pyran-4-carbonitrile]
0.07 nM			CC1(C)CC2(c3ccc(Nc4nn([C@H]5COCC[C@@H]5C#N)c5cc[nH]c(=O)c45)cc3)CCC1C(=O)O2 (stereo partly drawn) [Example 1-20, (3R,4S)-3-(3-{[4-(5,5-dimethyl-3-oxo-2-oxabicyclo[2.2.2]oct-1-yl)phenyl]amino}-4-oxo-4,5-dihydro-1H-pyrazolo[4,3-c]pyridin-1-yl)tetrahydro-2H-pyran-4-carbonitrile]
0.08 nM			CC1(C)CC2(c3ccc(Nc4nn([C@H]5COCC[C@@H]5C#N)c5cc[nH]c(=O)c45)cc3)CCC1C(=O)O2 (stereo partly drawn) [Example 1-21, (3R,4S)-3-(3-{[4-(5,5-dimethyl-3-oxo-2-oxabicyclo[2.2.2]oct-1-yl)phenyl]amino}-4-oxo-4,5-dihydro-1H-pyrazolo[4,3-c]pyridin-1-yl)tetrahydro-2H-pyran-4-carbonitrile]
0.07 nM			N#C[C@H]1CCOCC1n1nc(Nc2ccc(C3(C(F)(F)F)CCNC3)cc2)c2c(=O)[nH]ccc21 (single isomer, unassigned) [Example 1-99, (3R,4S)-3-(4-oxo-3-((4-((S or R)-3-(trifluoromethyl)pyrrolidin-3-yl)phenyl)amino)-4,5-dihydro-1H-pyrazolo[4,3-c]pyridin-1-yl)tetrahydro-2H-pyran-4-carbonitrile]
